Where “and” joins values, the source holds several entries; their conditions need not be identical. Equal values may be shown once.
Assays:
[1] = molar heat capacity at constant pressure; conditions: 101.33 kPa, Small (less than 1 g) adiabatic calorimetry
[2] = Molar enthalpy of transition or fusion; conditions: Adiabatic calorimetry
[3] = for vapor or sublimation pressure: Crystal 1; for Triple point temperature: Adiabatic calorimetry

NC12CC3CC(CC(C3)C1)C2 [tricyclo(3.3.1.1:3,7)decan-1-amine]
Conditions	molar heat capacity at constant pressure [J/K/mol]	vapor or sublimation pressure
[1], 5 K, Crystal 3	0.4688	–
[1], 10 K, Crystal 3	3.505	–
[1], 15 K, Crystal 3	9.163	–
[1], 20 K, Crystal 3	15.65	–
[1], 25 K, Crystal 3	21.75	–
[1], 30 K, Crystal 3	26.96	–
[1], 35 K, Crystal 3	31.21	–
[1], 40 K, Crystal 3	34.7	–
[1], 45 K, Crystal 3	37.68	–
[1], 50 K, Crystal 3	40.29	–
[1], 60 K, Crystal 3	44.98	–
[1], 70 K, Crystal 3	49.57	–
[1], 80 K, Crystal 3	54.53	–
[1], 90 K, Crystal 3	59.87	–
[1], 100 K, Crystal 3	65.39	–
[1], 110 K, Crystal 3	71.11	–
[1], 120 K, Crystal 3	77.06	–
[1], 130 K, Crystal 3	83.31	–
[1], 140 K, Crystal 3	89.8	–
[1], 150 K, Crystal 3	96.61	–
[1], 160 K, Crystal 3	103.8	–
[1], 170 K, Crystal 3	111.5	–
[1], 180 K, Crystal 3	119.5	–
[1], 190 K, Crystal 3	128	–
[1], 200 K, Crystal 3	136.9	–
[1], 210 K, Crystal 3	146.4	–
[1], 220 K, Crystal 3	156.5	–
[1], 230 K, Crystal 3	167.1	–
[1], 240 K, Crystal 3	178.3	–
[1], 241.4 K, Crystal 2	179.9	–
[1], 241.4 K, Crystal 3	179.9	–
[1], 250 K, Crystal 2	190.2	–
[1], 260 K, Crystal 2	202.7	–
[1], 270 K, Crystal 2	215.9	–
[1], 280 K, Crystal 2	230	–
[1], 284.6 K, Crystal 1	263.6	–
[1], 284.6 K, Crystal 2	236.6	–
[1], 290 K, Crystal 1	264.7	–
[1], 298.15 K, Crystal 1	266.4	–
[1], 300 K, Crystal 1	266.8	–
[1], 310 K, Crystal 1	268.9	–
[1], 320 K, Crystal 1	271.1	–
[1], 330 K, Crystal 1	273.1	–
[1], 340 K, Crystal 1	275.5	–
[1], 350 K, Crystal 1	278.5	–
[1], 360 K, Crystal 1	282.1	–
[1], 370 K, Crystal 1	286.4	–
[3], 291.05 K, Calculated from knudsen effusion weight loss	–	0.00621 kPa
[3], 291.07 K, Calculated from knudsen effusion weight loss	–	0.00627 kPa
[3], 291.2 K, Transpiration method	–	0.00632 kPa
[3], 293.54 K, Calculated from knudsen effusion weight loss	–	0.00757 kPa
[3], 293.55 K, Calculated from knudsen effusion weight loss	–	0.00752 kPa
[3], 294.2 K, Transpiration method	–	0.00832 kPa
[3], 297.1 K, Transpiration method	–	0.0107 kPa
[3], 300.1 K, Transpiration method	–	0.0137 kPa
[3], 303.2 K, Transpiration method	–	0.0186 kPa
[3], 305.6 K, Transpiration method	–	0.0223 kPa
[3], 305.94 K, Calculated from knudsen effusion weight loss	–	0.0211 kPa
[3], 305.98 K, Calculated from knudsen effusion weight loss	–	0.0204 kPa
[3], 308.1 K, Transpiration method	–	0.027 kPa
[3], 308.52 K, Calculated from knudsen effusion weight loss	–	0.0263 kPa
[3], 310.4 K, Transpiration method	–	0.0291 kPa
[3], 310.94 K, Calculated from knudsen effusion weight loss	–	0.0309 kPa and 0.0315 kPa
[3], 313.2 K, Transpiration method	–	0.0396 kPa
[3], 318 K, Transpiration method	–	0.0535 kPa
[3], 318.3 K, Transpiration method	–	0.0549 kPa
[3], 323.3 K, Transpiration method	–	0.0777 kPa
[3], 328.1 K, Transpiration method	–	0.108 kPa
[3], 333.4 K, Transpiration method	–	0.148 kPa and 0.153 kPa
[3], 338.3 K, Transpiration method	–	0.2 kPa
[3], 338.5 K, Transpiration method	–	0.205 kPa
[3], 343.4 K, Transpiration method	–	0.269 kPa
[3], 343.6 K, Transpiration method	–	0.286 kPa

Conditions	Molar enthalpy of transition or fusion, [2] [kcal/mol]	Triple point temperature, [3] [K]
Crystal 2	1.269	284.6
Crystal 3	0.41	241.4

Conditions	mass density [kg/m3]
[3], 298.15 K, 101.33 kPa, Crystal 3, Pycnometric method	1100
